Results taken from patent publication US20180155757A1, “IDENTIFICATION OF BACTERIA THAT ARE RESISTANT TO CARBAPENEMS BY MEMBRANE IMPERVIOUSNESS” (BIOMÉRIEUX, priority 2015, published 2018).
Read-outs that look alike come from different tables or passages of the source.

Key:
Assay in all cases: Etest MIC of indicator carbapenems on MH II agar without/with PMBN
Format in all cases: cell-based
E. aerogenes 9203076 = conditions: Klebsiella aerogenes, 9203076, E. aerogenes 9203076 (porin−), Table 4, read-out: MIC
Procedure: (§1) The determinations of antibiotic MIC were carried out on solid culture media with the Etest® method. To do this, Etest® strips (bioMérieux, France) were used: • Etest® Imipenem IM 32, and • Etest® Ertapenem ETP 32, and also solid culture media, differing from one another by virtue of their non-inhibitory concentrations of PMBN.
(§2) These solid culture media are prepared in Petri dishes (0=145 mm; V=50 ml) on a base of MH II Agar (Becton Dickinson®, United States), more or less supplemented with PMBN. The PMBN concentrations range from 0 up to concentrations equivalent to one fifth of the MIC of PMBN (⅕ MICPMBN).
(§3) Using a swab and the Retro C80™ rota-plater (bioMérieux, France), the culture media were inoculated with the bacteria, originating from an inoculum of 0.5 McFarland, prepared in 0.85% NaCl solution from colonies subcultured the day before on MH II agar.
(§4) The various Etest® strips are then deposited on the surface of the culture media. After 16 to 20 hours of incubation at 35° C., the MICS were read.
(§5) To do this, imipenem and ertapenem were used as indicator carbapenems. Non-inhibitory concentrations of PMBN, equivalent to concentrations of one tenth ( 1/10), one eighth (⅛) and one fifth (⅕) of the MIC of PMBN, were applied.
(§6) In the light of the MICPMBN values previously identified, very predominantly much higher than 300 μg/ml, the following standard concentrations were retained and applied to the bacterial strains to be tested: 50, 100, 150, 200 and 300 μg/ml.
(§7) By way of indicator carbapenems according to the invention, in addition to imipenem (IM) and ertapenem (ETP), meropenem (MP) was also tested. Like the other two antibiotics, meropenem was used in the form of Etest® strips (Etest® Meropenem MP 32 from the company bioMérieux, France).
(§8) The methods used to prepare the new culture media and to carry out the antibiotic-sensitivity tests are identical to those described above.

E. aerogenes 9306071 = test system: E. aerogenes 9306071
Procedure: as §1, §2, §3, §4, §5, §6, §7, §8

E. cloacae 9402034 = test system: E. cloacae 9402034
Procedure: as §1, §2, §3, §4, §5, §6, §7, §8

E. coli 1204043 = test system: E. coli 1204043
Procedure: as §1, §2, §3, §4, §5, §6, §7, §8

K. pneumoniae 1002015 = test system: K. pneumoniae 1002015
Procedure: as §1, §2, §3, §4, §5, §6, §7, §8

K. pneumoniae 1204034 = test system: K. pneumoniae 1204034
Procedure: as §1, §2, §3, §4, §5, §6, §7, §8

`C[C@@H](O)[C@H]1C(=O)N2C(C(=O)O)=C(SCCN=CN)C[C@H]12` [IM, imipenem] showed an MIC (E. aerogenes 9203076; [PMBN] 0) of 6 µg/mL, an MIC (E. aerogenes 9203076; [PMBN] 150 μg/ml) of 3 µg/mL and an MIC (E. aerogenes 9203076; [PMBN] 200 μg/ml) of 3 µg/mL. The MIC (E. aerogenes 9306071; E. aerogenes 9306071 (membrane impermeability), [PMBN] 0, Table 4a) was 12 µg/mL, the MIC (E. aerogenes 9306071; E. aerogenes 9306071 (membrane impermeability), [PMBN] 100, Table 4a) was 6 µg/mL and the MIC (E. aerogenes 9306071; E. aerogenes 9306071 (membrane impermeability), [PMBN] 200, Table 4a) was 3 µg/mL. The MIC (E. aerogenes 9306071; E. aerogenes 9306071 (membrane impermeability), [PMBN] 300, Table 4a) was 2 µg/mL, the MIC (E. aerogenes 9306071; E. aerogenes 9306071, [PMBN] 0, Table 3) was 8 µg/mL and the MIC (E. aerogenes 9306071; E. aerogenes 9306071, [PMBN] MIC/5) was 2 µg/mL. The MIC (E. aerogenes 9306071; E. aerogenes 9306071, [PMBN] MIC/8) was 4 µg/mL, the MIC (E. aerogenes 9306071; E. aerogenes 9306071, [PMBN] MIC/10) was 4 µg/mL and the MIC (E. cloacae 9402034; E. cloacae 9402034 (membrane impermeability), [PMBN] 0, Table 4a) was over 32 µg/mL. For the same compound, the MIC (E. cloacae 9402034; E. cloacae 9402034 (membrane impermeability), [PMBN] 100, Table 4a) was 8 µg/mL, the MIC (E. cloacae 9402034; E. cloacae 9402034 (membrane impermeability), [PMBN] 200, Table 4a) was 12 µg/mL and the MIC (E. cloacae 9402034; E. cloacae 9402034 (membrane impermeability), [PMBN] 300, Table 4a) was 12 µg/mL. For the same compound, the MIC (E. cloacae 9402034; E. cloacae 9402034, [PMBN] 0, Table 3) was 16 µg/mL, the MIC (E. cloacae 9402034; E. cloacae 9402034, [PMBN] MIC/5) was 8 µg/mL and the MIC (E. cloacae 9402034; E. cloacae 9402034, [PMBN] MIC/8) was 8 µg/mL. For the same compound, the MIC (E. cloacae 9402034; E. cloacae 9402034, [PMBN] MIC/10) was 8 µg/mL, the MIC (E. coli 1204043; E. coli 1204043 (membrane impermeability), [PMBN] 0, Table 4a, in µg/mL) was over 32 and the MIC (E. coli 1204043; E. coli 1204043 (membrane impermeability), [PMBN] 100, Table 4a, in µg/mL) was 6-8. For the same compound, the MIC (E. coli 1204043; E. coli 1204043 (membrane impermeability), [PMBN] 200, Table 4a, in µg/mL) was 3-6, the MIC (E. coli 1204043; E. coli 1204043 (membrane impermeability), [PMBN] 300, Table 4a, in µg/mL) was 3 and the MIC (E. coli 1204043; E. coli 1204043, [PMBN] 0, Table 3, in µg/mL) was 8. For the same compound, the MIC (E. coli 1204043; E. coli 1204043, [PMBN] MIC/5, in µg/mL) was 1, the MIC (E. coli 1204043; E. coli 1204043, [PMBN] MIC/8, in µg/mL) was 1 and the MIC (E. coli 1204043; E. coli 1204043, [PMBN] MIC/10, in µg/mL) was 2. The MIC (E. coli 1204043; Escherichia coli, 1204043, E. coli 1204043 (porin−), [PMBN] 0, Table 4, read-out: MIC) was 24 µg/mL, the MIC (E. coli 1204043; Escherichia coli, 1204043, E. coli 1204043 (porin−), [PMBN] 150 μg/ml, Table 4, read-out: MIC) was 1 µg/mL and the MIC (E. coli 1204043; Escherichia coli, 1204043, E. coli 1204043 (porin−), [PMBN] 200 μg/ml, Table 4, read-out: MIC) was 0.25 µg/mL. For the same compound, the MIC (K. pneumoniae 1002015; K. pneumoniae 1002015, [PMBN] 0, Table 3) was 2 µg/mL, the MIC (K. pneumoniae 1002015; K. pneumoniae 1002015, [PMBN] MIC/5) was 0.25 µg/mL and the MIC (K. pneumoniae 1002015; K. pneumoniae 1002015, [PMBN] MIC/8) was 0.25 µg/mL. The MIC (K. pneumoniae 1002015; K. pneumoniae 1002015, [PMBN] MIC/10) was 0.5 µg/mL, the MIC (K. pneumoniae 1002015; Klebsiella pneumoniae, 1002015, K. pneumoniae 1002015 (porin−), [PMBN] 0, Table 4, read-out: MIC) was 0.5 µg/mL and the MIC (K. pneumoniae 1002015; Klebsiella pneumoniae, 1002015, K. pneumoniae 1002015 (porin−), [PMBN] 150 μg/ml, Table 4, read-out: MIC) was 0.38 µg/mL. It also gave an MIC (K. pneumoniae 1002015; Klebsiella pneumoniae, 1002015, K. pneumoniae 1002015 (porin−), [PMBN] 200 μg/ml, Table 4, read-out: MIC) of 0.25 µg/mL, an MIC (K. pneumoniae 1204034; K. pneumoniae 1204034 (membrane impermeability), [PMBN] 0, Table 4a) of 3 µg/mL and an MIC (K. pneumoniae 1204034; K. pneumoniae 1204034 (membrane impermeability), [PMBN] 100, Table 4a) of 0.5 µg/mL. For the same compound, the MIC (K. pneumoniae 1204034; K. pneumoniae 1204034 (membrane impermeability), [PMBN] 200, Table 4a) was 0.38 µg/mL, the MIC (K. pneumoniae 1204034; K. pneumoniae 1204034 (membrane impermeability), [PMBN] 300, Table 4a) was 0.19 µg/mL and the MIC (K. pneumoniae 1204034; K. pneumoniae 1204034, [PMBN] 0, Table 3) was 2 µg/mL. It also gave an MIC (K. pneumoniae 1204034; K. pneumoniae 1204034, [PMBN] MIC/5) of 0.5 µg/mL, an MIC (K. pneumoniae 1204034; K. pneumoniae 1204034, [PMBN] MIC/8) of 0.5 µg/mL and an MIC (K. pneumoniae 1204034; K. pneumoniae 1204034, [PMBN] MIC/10) of 0.5 µg/mL. It also gave an MIC (K. pneumoniae 1204034; Klebsiella pneumoniae, 1204034, K. pneumoniae 1204034 (porin−), [PMBN] 0, Table 4, read-out: MIC) of 2 µg/mL, an MIC (K. pneumoniae 1204034; Klebsiella pneumoniae, 1204034, K. pneumoniae 1204034 (porin−), [PMBN] 150 μg/ml, Table 4, read-out: MIC) of 0.38 µg/mL and an MIC (K. pneumoniae 1204034; Klebsiella pneumoniae, 1204034, K. pneumoniae 1204034 (porin−), [PMBN] 200 μg/ml, Table 4, read-out: MIC) of 0.38 µg/mL.
